PubChem BioAssay (NCI)
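Where inhibition never reached the appropriate level, the endpoint shown equals the highest concentration tested. Otherwise, values were interpolated linearly from a five-concentration, 48-hour dose response in 96-well plates. TGI denotes the concentration required for complete inhibition of growth.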

What was measured:
Assay in all cases: growth of human tumour cells (NCI), 48 h
MOLT-4 leukemia = system: MOLT-4 leukemia
KM12 colon = system: KM12 colon
MDA-N = system: MDA-N
IGROV1 ovarian = system: IGROV1 ovarian
SW-620 colon = system: SW-620 colon
SF-268 CNS = system: SF-268 CNS
BT-549 breast = system: BT-549 breast
A549 NSCLC = system: A549 NSCLC
CAKI-1 renal = system: CAKI-1 renal
T-47D breast = system: T-47D breast
NCI-H522 lung = system: NCI-H522 lung
NCI-H460 lung = system: NCI-H460 lung
K-562 leukemia = system: K-562 leukemia

| SMILES | TGI (MOLT-4 leukemia) [µM] | TGI (KM12 colon) [µM] | TGI (MDA-N) [µM] | TGI (IGROV1 ovarian) [µM] | TGI (SW-620 colon) [µM] | TGI (SF-268 CNS) [µM] | TGI (BT-549 breast) [µM] | TGI (A549 NSCLC) [µM] | TGI (CAKI-1 renal) [µM] | TGI (T-47D breast) [µM] | TGI (NCI-H522 lung) [µM] | TGI (NCI-H460 lung) [µM] | TGI (K-562 leukemia) [µM] |
| --- | --- | --- | --- | --- | --- | --- | --- | --- | --- | --- | --- | --- | --- |
| CCCCCCCCCCOCCOCCOCCOCCCCC(O)CCCCCCCC1=C[C@H](C)OC1=O (some centres not stated) | 20.8 | 23.9 | 24.3 | 30.5 | 29.5 | 22.9 | 16.1 | 29.9 | 32.2 | 75 | 21.1 | 22 | 36.3 |
| CC(C)(C)n1c(=O)n2n(c1=O)C1c3cccc4cccc(c34)C2C2c3cccc4cccc(c34)C1n1c(=O)n(C(C)(C)C)c(=O)n12 | > 100 | > 100 | > 100 | > 100 | > 100 | > 100 | > 100 | > 100 | > 100 | > 100 | > 100 | > 100 | > 100 |
| Cn1cc(-c2nnc(-c3ccc(Cl)cc3)[nH]c2=O)c2ccccc21 | 98.8 | > 23.9 | 1.83 | > 100 | > 64.6 | > 100 | > 100 | > 100 | > 100 | > 100 | 6.16 | > 44.1 | > 100 |
| O=[N+]([O-])/C(Cl)=C/C(=C1/Nc2ccccc2O1)[N+](=O)[O-] | 87.2 | 36.2 | 46 | > 100 | 72.3 | 54.4 | 52 | > 100 | 45.9 | > 100 | 27 | 81 | 87.1 |
| COc1cc(/C=C2\N=C(c3ccccc3)N(c3nc4ccc(Sc5ccccc5)cc4[nH]3)C2=O)cc(OC)c1OC | 78.5 | 58.8 | 24.7 | > 100 | > 100 | > 100 | 55.1 | > 100 | > 100 | > 100 | 48 | 51.4 | 48.1 |
| COc1cc(C2OC[C@@H]3C(=O)OC[C@H]23)cc(O)c1OC (some centres not stated) | > 100 | > 100 | > 100 | > 100 | > 100 | > 100 | > 100 | > 100 | > 100 | > 100 | > 100 | > 100 | > 100 |
| Cc1cn(C2CCN(CC3COC(C)(C)O3)O2)c(=O)[nH]c1=O (configuration not stated) | > 100 | > 100 | > 100 | > 100 | > 100 | > 100 | > 100 | > 100 | > 100 | > 100 | > 100 | > 100 | > 100 |
| CC(C)Cn1cnc2c(Cl)nc3ccccc3c21 | > 100 | > 100 | > 100 | > 100 | > 100 | > 100 | > 100 | > 100 | > 100 | > 100 | > 100 | > 100 | > 100 |
| CN(C)c1ccc(/C=C(\NC(=O)c2ccccc2)C(=O)Nc2cccc(C(=O)NCCCO)c2)cc1 | > 100 | > 100 | > 100 | > 100 | > 100 | > 100 | > 100 | > 100 | > 100 | > 100 | > 100 | > 100 | > 100 |
| O=S(=O)(CCC[C@H]1[C@@H](CCOCc2ccccc2)C2CCCN1O2)c1ccccc1 (some centres not stated) | > 100 | > 100 | > 100 | > 100 | > 100 | > 100 | > 100 | > 100 | > 100 | > 100 | > 100 | > 100 | > 100 |
| C(#CC1(Nc2ccccc2)CCN(Cc2ccccc2)CC1)C1(Nc2ccccc2)CCN(Cc2ccccc2)CC1 | 32.7 | > 56.2 | > 56.2 | > 46.4 | > 56.2 | 47.8 | > 100 | > 56.2 | 44.5 | > 100 | > 56.2 | > 46.4 | 16.1 |
| Cc1ccc(C(=O)N/N=C(\N=Nc2ccccc2Cl)c2ccc(N(C)C)cc2)cc1 | > 100 | > 100 | 34.5 | > 100 | > 100 | > 100 | 97.1 | > 100 | 75.4 | 24.5 | > 100 | > 100 | > 100 |
| O=C1/C(=C/c2ccc(O)c(O)c2)CC/C1=C\c1ccc(O)c(O)c1 | > 36.8 | > 100 | > 100 | > 58.5 | > 100 | 26.7 | 28.9 | > 79.9 | > 57.7 | 63.3 | 5.42 | > 100 | 27.7 |
| O=C1C=C(c2ccccc2)O/C1=C\C(=O)c1ccc(Cl)cc1 | > 100 | 80.5 | 38.7 | 35.8 | 10.1 | 52.2 | 25.3 | – | 32.5 | 74.1 | 44.2 | > 100 | 73 |
| Cc1cccc(C)c1N=Nc1ccc(O)c(CN(C)C)c1 | > 100 | > 100 | > 100 | > 100 | > 100 | > 100 | > 100 | > 100 | > 100 | 79.3 | > 100 | > 100 | > 100 |
| CCC1CCC2c3c([nH]c4ccc(C)cc34)C3C(=O)N(N(C)C)C(=O)C3C2C1 (configuration not stated) | > 100 | > 100 | 4.52 | > 100 | > 100 | > 59.8 | > 100 | > 100 | > 100 | 41.2 | 2.68 | > 68 | > 57 |
